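Assay format: 96-well plates, 48-hour exposure. The concentration for 50% growth inhibition is given as GI50.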 Active and inactive are the calls of the source. No stated cut-off is given here; in the data, active = GI50 up to about 1.1 µM and inactive = higher. A value given as a limit tells only on which side of the number the result lay.

Among the test systems are HOP-92; KM12; RXF 393; EKVX; U-251; NCI-H226; K562; UACC-257; 786-0; HL-60; HCT-15; SW-620; IGROV-1; HOP-62; NCI-H522; NCI-H23; T47D; DU-145; MDA-MB-435.
Holding throughout (assay): growth of human tumour cells (NCI), 48 h

On to `CCCCCCC(=O)C/C(CCC(=O)N(Cc1ccccc1)Cc1ccccc1)=N\Nc1ccc([N+](=O)[O-])cc1[N+](=O)[O-]`, for which the GI50 is 51.1 µM (inactive) in the experiment with HOP-92; 46 µM (inactive) in the experiment with KM12; > 100 µM (inactive) in the experiment on RXF 393; 29.1 µM (inactive) in the experiment with EKVX; 54.1 µM (inactive) in the experiment with U-251; > 100 µM (inactive) in the experiment on NCI-H226. Moreover, the GI50 is 20.3 µM (inactive) in the experiment on K562; 48 µM (inactive) in the experiment with UACC-257; 58.5 µM (inactive) with 786-0; 32.2 µM (inactive) in the experiment with HL-60; 42.5 µM with HCT-15; 55.6 µM (inactive) in the experiment with SW-620. The GI50 in the experiment on IGROV-1 is > 100 µM (inactive); in the experiment on HOP-62, > 100 µM (inactive); in the experiment with NCI-H522 it was 23.7 µM (inactive); in the experiment with NCI-H23 it was 38.7 µM (inactive).

Turning to `C=C1c2cc3c(cc2CC12Cc1cc4c(cc1C2=O)CCC4)CCC3` (centres undefined), the GI50 in the experiment on HOP-92, in the experiment with RXF 393, with EKVX, in the experiment with T47D, in the experiment with U-251 and with K562 was > 100 µM (inactive) throughout. Further, the GI50 was > 100 µM (inactive) with UACC-257; > 100 µM (inactive) in the experiment with 786-0; > 100 µM (inactive) with HL-60; greater than 100 µM with HCT-15; > 100 µM (inactive) with DU-145; > 100 µM (inactive) in the experiment on SW-620. Further, the GI50 with IGROV-1, in the experiment with MDA-MB-435, in the experiment with HOP-62, in the experiment on NCI-H522 and with NCI-H23 was > 100 µM (inactive) throughout.

As to `O=C1c2ccoc2C(=O)c2oc(=O)ccc21`, the GI50 in the experiment on HOP-92 was 21.6 µM (inactive); in the experiment with KM12 it was > 42 µM (inactive); with RXF 393 it was 5.86 µM (inactive); in the experiment on EKVX, 20.8 µM (inactive); with U-251 it was 8.15 µM (inactive); in the experiment with NCI-H226, > 42.6 µM (inactive). For the same compound, the GI50 with K562 was 6.46 µM (inactive); with UACC-257, 7.33 µM (inactive); in the experiment with 786-0 it was 16.8 µM (inactive); with HL-60 it was 2.32 µM (inactive); with HCT-15, 12 µM; with SW-620 it was 4.23 µM (inactive). Moreover, the GI50 is 19.6 µM (inactive) with IGROV-1, > 46.1 µM (inactive) in the experiment on HOP-62, 1.86 µM (inactive) in the experiment with NCI-H522 and 2 µM (inactive) with NCI-H23.

Regarding `COc1c2nc(CCl)[nH]c(=O)c2c(OC)c2nc(CCl)[nH]c(=O)c12`, the GI50 with HOP-92, in the experiment with KM12, in the experiment on RXF 393, in the experiment on U-251, in the experiment with NCI-H226 and in the experiment on K562 was > 100 µM (inactive) each time. The GI50 is > 100 µM (inactive) with UACC-257; > 100 µM (inactive) with 786-0; > 100 µM (inactive) in the experiment with HL-60; greater than 100 µM in the experiment with HCT-15; > 100 µM (inactive) in the experiment with SW-620; > 100 µM (inactive) in the experiment with IGROV-1. Besides, the GI50 in the experiment with HOP-62, with NCI-H522 and with NCI-H23 was > 100 µM (inactive) in each case.

Consider `COC(=O)N1CCc2c(nc(N(C)CCO)[nH]c2=O)C1`, for which the GI50 with HOP-92, in the experiment on KM12, in the experiment with RXF 393, in the experiment with EKVX, in the experiment on U-251 and in the experiment on NCI-H226 was > 100 µM (inactive) each time. In addition, the GI50 in the experiment on K562 was > 100 µM (inactive); with UACC-257, > 100 µM (inactive); in the experiment with 786-0, > 100 µM (inactive); in the experiment with HL-60, > 100 µM (inactive); in the experiment on HCT-15, greater than 100 µM; with SW-620 it was > 100 µM (inactive). For the same compound, the GI50 in the experiment on IGROV-1, in the experiment with HOP-62, with NCI-H522 and with NCI-H23 was > 100 µM (inactive) throughout.

In the case of `O=C1CCCCCCCCCCC1CCCCCBr` (centres undefined), the GI50 in the experiment with HOP-92 is 18.4 µM (inactive); in the experiment on KM12, 23.1 µM (inactive); in the experiment on RXF 393, 19.6 µM (inactive); with EKVX it was 41.7 µM (inactive); in the experiment with T47D, 24.2 µM (inactive); in the experiment with U-251, 20 µM (inactive). For the same compound, the GI50 in the experiment on NCI-H226 was 20.8 µM (inactive); in the experiment on K562 it was 16.1 µM (inactive); in the experiment on UACC-257, 21.3 µM (inactive); with 786-0, 32.4 µM (inactive); in the experiment with HCT-15, 24.3 µM; with DU-145, 28.7 µM (inactive). For the same compound, the GI50 in the experiment on SW-620 is 42.5 µM (inactive); in the experiment on IGROV-1, 20.1 µM (inactive); in the experiment on MDA-MB-435 it was 40.8 µM (inactive); in the experiment on HOP-62, 29.2 µM (inactive); in the experiment on NCI-H522, 19.6 µM (inactive); with NCI-H23 it was 24.4 µM (inactive).

Consider `COc1cc(C(c2cc3c(cc2O)OCO3)N2CCCC2)cc(OC)c1OC` (centres undefined), for which the GI50 in the experiment with HOP-92 was 7.96 µM (inactive); in the experiment with KM12, 18.2 µM (inactive); with EKVX, 14.7 µM (inactive); in the experiment on T47D, 23.2 µM (inactive); with U-251, 16.9 µM (inactive); in the experiment on NCI-H226, 17.4 µM (inactive). Further, the GI50 in the experiment on K562 was 4.37 µM (inactive); in the experiment on UACC-257, 17.5 µM (inactive); in the experiment with 786-0, 14.7 µM (inactive); in the experiment with HL-60 it was 2.07 µM (inactive); with HCT-15, 8.43 µM; in the experiment on DU-145, 19.3 µM (inactive). In addition, the GI50 was 3.4 µM (inactive) in the experiment with SW-620; 12.4 µM (inactive) with IGROV-1; 13.4 µM (inactive) in the experiment with MDA-MB-435; 30.5 µM (inactive) in the experiment on HOP-62; 3.35 µM (inactive) in the experiment with NCI-H522; 17.5 µM (inactive) with NCI-H23.

With `N#Cc1c(-c2ccco2)cc(-c2ccccc2)nc1O`, the GI50 in the experiment with HOP-92, in the experiment with KM12, with RXF 393, in the experiment with EKVX, in the experiment with U-251 and in the experiment on NCI-H226 was > 100 µM (inactive) in each case. Besides, the GI50 in the experiment on K562 was > 100 µM (inactive); with UACC-257, > 100 µM (inactive); in the experiment with 786-0 it was > 100 µM (inactive); in the experiment with HL-60, > 100 µM (inactive); with HCT-15, greater than 100 µM; with SW-620 it was > 100 µM (inactive). Also, the GI50 in the experiment with IGROV-1, in the experiment with HOP-62, in the experiment with NCI-H522 and with NCI-H23 was > 100 µM (inactive) in each case.

As to `CCO[C@]12CCC[C@H]1[C@@H]1C(=O)c3ccccc3C(=O)C1=C(C)O2`, the GI50 in the experiment on HOP-92 was 44.9 µM (inactive); in the experiment with KM12 it was > 100 µM (inactive); in the experiment on RXF 393, 20.5 µM (inactive); with EKVX, > 100 µM (inactive); with T47D it was 70 µM (inactive); in the experiment on U-251 it was 36.3 µM (inactive). Moreover, the GI50 in the experiment on K562 was 32 µM (inactive); with UACC-257, > 100 µM (inactive); in the experiment with 786-0, 29.2 µM (inactive); in the experiment on HL-60 it was 41.7 µM (inactive); with HCT-15, greater than 100 µM; in the experiment on DU-145, 58.1 µM (inactive). The GI50 was 37.2 µM (inactive) in the experiment on SW-620; > 100 µM (inactive) in the experiment with IGROV-1; 39.5 µM (inactive) in the experiment on MDA-MB-435; > 100 µM (inactive) with HOP-62; > 100 µM (inactive) in the experiment on NCI-H522; 98.2 µM (inactive) with NCI-H23.

Consider `COc1ccccc1C1c2cc3c(cc2OC(N2CCOCC2)C1C)OCO3` (centres undefined), for which the GI50 in the experiment on KM12 is 16.4 µM (inactive); in the experiment on EKVX, 20.6 µM (inactive); in the experiment with T47D it was 13.2 µM (inactive); in the experiment with K562, 7.85 µM (inactive); in the experiment on UACC-257, 15.8 µM (inactive); in the experiment with 786-0, 18.9 µM (inactive). Moreover, the GI50 in the experiment on HCT-15 was 16.7 µM; in the experiment on DU-145 it was 18.5 µM (inactive); in the experiment on SW-620, 17.7 µM (inactive); in the experiment on IGROV-1, 27.2 µM (inactive); with MDA-MB-435, 8.04 µM (inactive); in the experiment on HOP-62, 17.8 µM (inactive). The figures for the GI50 with NCI-H522 and in the experiment with NCI-H23 were 12.7 µM (inactive) and 19.8 µM (inactive), respectively.

In the case of `CC1(C)C(CCO)CC1n1cc(I)c(=O)[nH]c1=O` (centres undefined), the GI50 in the experiment on HOP-92 was > 100 µM (inactive); in the experiment on KM12, > 100 µM (inactive); with RXF 393 it was > 100 µM (inactive); in the experiment on EKVX, > 100 µM (inactive); in the experiment on T47D it was > 100 µM (inactive); in the experiment with U-251 it was 75.3 µM (inactive). Besides, the GI50 in the experiment with NCI-H226 was > 100 µM (inactive); in the experiment on K562 it was > 100 µM (inactive); in the experiment with UACC-257 it was > 100 µM (inactive); in the experiment with 786-0 it was > 100 µM (inactive); in the experiment with HCT-15, greater than 100 µM; in the experiment with DU-145 it was > 100 µM (inactive). Besides, the GI50 in the experiment with SW-620, with MDA-MB-435 and with HOP-62 was > 100 µM (inactive) throughout.

As to `CCOC1c2nc3ccccc3nc2-c2ccccc2N1C(C)=O` (centres undefined), the GI50 was 29.2 µM (inactive) with HOP-92; > 100 µM (inactive) in the experiment with KM12; 28.3 µM (inactive) with RXF 393; > 100 µM (inactive) in the experiment on EKVX; > 100 µM (inactive) with U-251; 83 µM (inactive) in the experiment with K562. Besides, the GI50 is > 100 µM (inactive) with UACC-257; 56.8 µM (inactive) in the experiment with 786-0; > 100 µM (inactive) in the experiment on HL-60; greater than 100 µM with HCT-15; > 100 µM (inactive) with SW-620; > 100 µM (inactive) with IGROV-1. Besides, the GI50 with HOP-62 and with NCI-H23 was > 100 µM (inactive) in each case.

As to `CN1C(=O)n2c(nc3ccccc32)C(N=[N+]=[N-])(N=[N+]=[N-])C1=O` (centres undefined), the GI50 in the experiment with HOP-92 was 86.5 µM (inactive); with KM12 it was > 100 µM (inactive); in the experiment with RXF 393, > 100 µM (inactive); with EKVX, > 100 µM (inactive); in the experiment on U-251, > 100 µM (inactive); in the experiment with NCI-H226, > 100 µM (inactive). The GI50 in the experiment on K562 is > 100 µM (inactive); with UACC-257 it was > 100 µM (inactive); in the experiment on 786-0, > 100 µM (inactive); in the experiment on HL-60 it was > 100 µM (inactive); in the experiment on HCT-15, 99.1 µM; in the experiment with SW-620, > 100 µM (inactive). In addition, the GI50 with IGROV-1, with HOP-62, with NCI-H522 and in the experiment on NCI-H23 was > 100 µM (inactive) each time.

Values taken from ChEMBL document CHEMBL1201862, “PubChem BioAssay data set” (2004).
